pIC50: −log10 of the molar value. Read-outs that look alike come from different tables or passages of the source.
Assays:
[1] = target: T1, wild-type (WT) human TRPM7 (Homo sapiens, UniProt Q96QT4); experiment: Whole-cell recording of recombinant TRPM7 currents in transfected HEK293T cells (voltage ramps); assay type: cell-based
T1 construct: expressed in transfected cells; host or cells: HEK293T
Protocol: Electrophysiological recordings were made from HEK293T cells transfected wild-type (WT) human TRPM7 or the E1052A, and the D1054A mutant channels, as previously described.
Whole-cell and patch recordings were performed on HEK293T cells at room temperature (22-25°C) with Axopatch 200B (Molecular Devices, Sunnyvale, CA) amplifier. For whole-cell recordings, the Cs^+-based bath solution contained (in mM) 100 Cs-aspartate, 1 EGTA, 10 N-2-Hydroxyethylpiperazine-N'-thanesulfonic acid (HEPES) and 120 mannitol (pH adjusted to 7.4 with CsOH). When required, 1 mM ethyleneglycol-bis-(α-amino-ethyl ether) N,N'-tetra-acetic acid (EGTA) was replaced with added CaCl2 and MgCl2 as indictated in results section. The pipette solution contained 100 Cs-aspartate, 1 EGTA, 10 HEPES, 0.5 CsCl, and 100 mannitol (pH 7.4). The inhibition ratio (%) was calculated according to the following equation: inhibition ratio (%) = 100 × [1 - (INM)/(ICtl)], where ICtl is whole-cell current observed before application of NM at +100 and -100 mV. INM represents the current observed during application of NM.
Data were analyzed with Clampfit 9.2. (Molecular Devices, Sunnyvale, CA), Excel 2002 (Microsoft Corporation, Redmond, WA), Origin 5.0 (OriginLab Corp., Northhampton, MA) and finalized illustrated using CorelDraw X3 (Corel Corporation; Ontario, Canada). Currents were normalized to the amplitude of control responses. NM or DAPI inhibitory concentration-response plots were fitted to the logistic equation: I = (Amax-A0)/[1+(X/IC50)^n]+A0, where I is the normalized current amplitude, X is the antagonist concentration; n is Hill coefficient; IC50 is the concentration of antagonist that generate 50% of maximal inhibition. Results are reported for the text, the figures and amplitude histograms, as mean ± S.E.M. They represent the mean of n individual measurements on different cells. Statistical analysis was done with the unpaired or paired t-test, when appropriate. Chemicals are re-drawn based on the structures downloaded from Pubchem. NM was purchased from BioMol (Plymouth Meeting, PA) and its metabolites p-GBA and AN were from TCI and gabexate, DAPI, HSB from Sigma (St. Louis, MO).

[2] = test system: cultured hippocampal neurons; experiment: On-cell loose-patch recording of low Ca2+-induced action potential firing; assay type: cell-based, mouse; settings: NM 200 μM; induced by 0.5 mM Ca2+ and 0.5 mM Mg2+; control 8.5 ± 2.7 Hz
[3] = target: T2, TRPM7 current in cultured mouse hippocampal neurons (Mus musculus, UniProt Q923J1); experiment: Whole-cell voltage clamp of TRPM7 currents in cultured hippocampal neurons (low divalent cation-induced or compound-activated); assay type: cell-based
T2 construct: supports the substantial involvement of endogenous TRPM7 channels in the responses of neurons; endogenous in cells; host or cells: primary cultured hippocampal neurons from embryonic Swiss mice

[4] = test system: intracellular Ca2+ in cultured hippocampal neurons; experiment: Fura-2 calcium imaging in cultured hippocampal neurons; assay type: cell-based, mouse
Protocol: (§1) Time-pregnant Swiss mice (embryonic day 16) were anesthetized with halothane and were decapitated. Brains of fetuses were removed rapidly and placed in Ca^2+ and Mg^2+ free ice cold PBS. Whole hippocampus or cerebral cortices were dissected under a dissection microscope and incubated with 0.05% trypsin-EDTA for 10 min at 37°C, then triturated with fire-polished glass pipettes. Cells were counted and plated in poly-L-ornithine-coated culture dishes at a density of 1 × 10^6 cells per 35 mm diameter dish. Neurons were cultured with neurobasal medium supplemented with B27 and maintained at 37°C in a humidified 5% CO2 atmosphere incubator. Cultures were fed twice a week. Neurons at 14-21 day culture stages were used for electrophysiological recordings and calcium image.
Fura-2 fluorescent Ca^2+ imaging was performed as described previously. Cortical or hippocampal neurons grown on 25 mm round glass coverslips were washed three times with ECF and incubated with 5 μM Fura-2-AM for ~ 40 min at room temperature. Neurons were then washed three times and incubated in normal ECF for 30 min. Coverslips with Fura-2-loaded neurons were transferred to a perfusion chamber on the stage of an inverted microscope (Nikon TE300, Tokyo, Japan). Cells were illuminated using a xenon lamp (75W) and observed with a 40 × UV fluor oil-immersion objective lens. Video images were obtained using a cooled CCD camera (Sensys KAF 1401, Photometrics, Tucson, AZ) mounted on an inverted microscope (Nikon TE300, Tokyo, Japan). Digitized images were acquired, stored, and analyzed in a PC controlled by Axon Imaging Workbench software (AIW2.1, Molecular Devices, Sunnyvale, CA). The shutter and filter wheel (Lambda 10-2, Sutter Instrument, Novato, CA) were also controlled by AIW to allow timed illumination of cells at 340 and 380 nm excitation wavelengths. Fura-2 fluorescence was detected at an emission wavelength of 510 nm. Ratio images of 340/380 nm were analyzed by averaging pixel ratio values in circumscribed regions of cells in the field of view. […]

[5] = test system: intracellular Ca2+ in cultured mouse cortical neurons; experiment: Fura-2 calcium imaging in cultured cortical neurons; assay type: cell-based; settings: NM 50 μM; without NM 1.17 ± 0.03
Protocol: as §1
Fura-2 fluorescent Ca^2+ imaging was performed as described previously. Cortical or hippocampal neurons grown on 25 mm round glass coverslips were washed three times with ECF and incubated with 5 μM Fura-2-AM for ~ 40 min at room temperature. […] Digitized images were acquired, stored, and analyzed in a PC controlled by Axon Imaging Workbench software (AIW2.1, Molecular Devices, Sunnyvale, CA). […] Fura-2 fluorescence was detected at an emission wavelength of 510 nm. Ratio images of 340/380 nm were analyzed by averaging pixel ratio values in circumscribed regions of cells in the field of view. […]

[6] = test system: T3, human TRPM7 E1052A mutant; experiment: Whole-cell recording of E1052A mutant TRPM7 currents in HEK293T cells; assay type: cell-based; settings: 1 mM NM; 0.1 mM Ca2+ and 0.1 mM Mg2+; inward current at -100 mV
T3 construct: expressed in transfected cells; host or cells: HEK293T
Protocol: Electrophysiological recordings were made from HEK293T cells transfected wild-type (WT) human TRPM7 or the […], and the […] mutant channels, as previously described. Whole-cell and patch recordings were performed on HEK293T cells at room temperature (22-25°C) with Axopatch 200B (Molecular Devices, Sunnyvale, CA) amplifier. […] When required, 1 mM ethyleneglycol-bis-(α-amino-ethyl ether) N,N'-tetra-acetic acid (EGTA) was replaced with added CaCl2 and MgCl2 as indictated in results section. […] INM represents the current observed during application of NM.

[7] = 200 μM, 0.1 mM Ca2+ and 0.1 mM Mg2+

T2 sequence (Q923J1 whole entry): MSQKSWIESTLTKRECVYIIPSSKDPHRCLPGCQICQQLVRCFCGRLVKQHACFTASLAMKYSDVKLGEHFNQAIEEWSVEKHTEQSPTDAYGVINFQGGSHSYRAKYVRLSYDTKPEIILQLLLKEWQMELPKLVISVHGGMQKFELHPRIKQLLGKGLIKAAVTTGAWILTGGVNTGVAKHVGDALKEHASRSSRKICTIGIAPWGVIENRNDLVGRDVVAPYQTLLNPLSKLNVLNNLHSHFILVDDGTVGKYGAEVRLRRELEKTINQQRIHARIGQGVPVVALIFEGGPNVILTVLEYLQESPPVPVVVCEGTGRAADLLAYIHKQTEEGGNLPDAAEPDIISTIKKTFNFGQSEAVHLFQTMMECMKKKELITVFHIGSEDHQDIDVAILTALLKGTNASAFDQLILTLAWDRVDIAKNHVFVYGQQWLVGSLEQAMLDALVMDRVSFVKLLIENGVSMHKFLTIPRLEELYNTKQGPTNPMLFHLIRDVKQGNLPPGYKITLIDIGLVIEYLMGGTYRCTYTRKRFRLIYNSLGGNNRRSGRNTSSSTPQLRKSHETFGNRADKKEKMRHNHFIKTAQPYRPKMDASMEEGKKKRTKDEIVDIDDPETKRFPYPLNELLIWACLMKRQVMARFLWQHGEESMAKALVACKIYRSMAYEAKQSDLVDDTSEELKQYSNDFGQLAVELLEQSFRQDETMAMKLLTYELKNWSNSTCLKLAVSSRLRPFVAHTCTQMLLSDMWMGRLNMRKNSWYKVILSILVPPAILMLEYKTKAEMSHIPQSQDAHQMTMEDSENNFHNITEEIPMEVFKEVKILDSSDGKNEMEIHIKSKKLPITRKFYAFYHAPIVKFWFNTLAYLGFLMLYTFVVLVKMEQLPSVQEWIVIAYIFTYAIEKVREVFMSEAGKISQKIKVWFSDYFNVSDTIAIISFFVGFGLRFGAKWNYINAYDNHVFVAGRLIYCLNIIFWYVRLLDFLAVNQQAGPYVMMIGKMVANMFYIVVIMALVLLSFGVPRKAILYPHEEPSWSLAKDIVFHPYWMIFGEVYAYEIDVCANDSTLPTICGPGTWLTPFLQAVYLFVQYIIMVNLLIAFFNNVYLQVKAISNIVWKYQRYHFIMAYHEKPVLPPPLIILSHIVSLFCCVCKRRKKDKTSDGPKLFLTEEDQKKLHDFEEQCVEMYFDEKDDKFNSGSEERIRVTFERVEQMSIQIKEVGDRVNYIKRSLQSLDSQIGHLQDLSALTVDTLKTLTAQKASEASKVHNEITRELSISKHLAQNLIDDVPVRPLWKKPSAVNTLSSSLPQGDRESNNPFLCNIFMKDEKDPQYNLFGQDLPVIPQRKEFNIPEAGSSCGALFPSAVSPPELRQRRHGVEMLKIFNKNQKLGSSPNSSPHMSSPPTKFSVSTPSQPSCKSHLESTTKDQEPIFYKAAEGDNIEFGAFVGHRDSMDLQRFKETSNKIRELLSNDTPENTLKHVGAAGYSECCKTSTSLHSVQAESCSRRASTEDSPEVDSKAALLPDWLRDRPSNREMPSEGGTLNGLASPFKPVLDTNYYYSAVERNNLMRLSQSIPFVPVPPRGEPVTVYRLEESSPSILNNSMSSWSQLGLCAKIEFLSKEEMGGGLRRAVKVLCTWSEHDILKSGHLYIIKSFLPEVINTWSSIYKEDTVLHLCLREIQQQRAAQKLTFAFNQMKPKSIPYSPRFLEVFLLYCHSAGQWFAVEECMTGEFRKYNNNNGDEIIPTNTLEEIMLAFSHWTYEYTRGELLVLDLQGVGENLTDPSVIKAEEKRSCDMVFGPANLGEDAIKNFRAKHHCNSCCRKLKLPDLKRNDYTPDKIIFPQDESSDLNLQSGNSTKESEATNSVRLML
T1 sequence (Q96QT4 whole entry): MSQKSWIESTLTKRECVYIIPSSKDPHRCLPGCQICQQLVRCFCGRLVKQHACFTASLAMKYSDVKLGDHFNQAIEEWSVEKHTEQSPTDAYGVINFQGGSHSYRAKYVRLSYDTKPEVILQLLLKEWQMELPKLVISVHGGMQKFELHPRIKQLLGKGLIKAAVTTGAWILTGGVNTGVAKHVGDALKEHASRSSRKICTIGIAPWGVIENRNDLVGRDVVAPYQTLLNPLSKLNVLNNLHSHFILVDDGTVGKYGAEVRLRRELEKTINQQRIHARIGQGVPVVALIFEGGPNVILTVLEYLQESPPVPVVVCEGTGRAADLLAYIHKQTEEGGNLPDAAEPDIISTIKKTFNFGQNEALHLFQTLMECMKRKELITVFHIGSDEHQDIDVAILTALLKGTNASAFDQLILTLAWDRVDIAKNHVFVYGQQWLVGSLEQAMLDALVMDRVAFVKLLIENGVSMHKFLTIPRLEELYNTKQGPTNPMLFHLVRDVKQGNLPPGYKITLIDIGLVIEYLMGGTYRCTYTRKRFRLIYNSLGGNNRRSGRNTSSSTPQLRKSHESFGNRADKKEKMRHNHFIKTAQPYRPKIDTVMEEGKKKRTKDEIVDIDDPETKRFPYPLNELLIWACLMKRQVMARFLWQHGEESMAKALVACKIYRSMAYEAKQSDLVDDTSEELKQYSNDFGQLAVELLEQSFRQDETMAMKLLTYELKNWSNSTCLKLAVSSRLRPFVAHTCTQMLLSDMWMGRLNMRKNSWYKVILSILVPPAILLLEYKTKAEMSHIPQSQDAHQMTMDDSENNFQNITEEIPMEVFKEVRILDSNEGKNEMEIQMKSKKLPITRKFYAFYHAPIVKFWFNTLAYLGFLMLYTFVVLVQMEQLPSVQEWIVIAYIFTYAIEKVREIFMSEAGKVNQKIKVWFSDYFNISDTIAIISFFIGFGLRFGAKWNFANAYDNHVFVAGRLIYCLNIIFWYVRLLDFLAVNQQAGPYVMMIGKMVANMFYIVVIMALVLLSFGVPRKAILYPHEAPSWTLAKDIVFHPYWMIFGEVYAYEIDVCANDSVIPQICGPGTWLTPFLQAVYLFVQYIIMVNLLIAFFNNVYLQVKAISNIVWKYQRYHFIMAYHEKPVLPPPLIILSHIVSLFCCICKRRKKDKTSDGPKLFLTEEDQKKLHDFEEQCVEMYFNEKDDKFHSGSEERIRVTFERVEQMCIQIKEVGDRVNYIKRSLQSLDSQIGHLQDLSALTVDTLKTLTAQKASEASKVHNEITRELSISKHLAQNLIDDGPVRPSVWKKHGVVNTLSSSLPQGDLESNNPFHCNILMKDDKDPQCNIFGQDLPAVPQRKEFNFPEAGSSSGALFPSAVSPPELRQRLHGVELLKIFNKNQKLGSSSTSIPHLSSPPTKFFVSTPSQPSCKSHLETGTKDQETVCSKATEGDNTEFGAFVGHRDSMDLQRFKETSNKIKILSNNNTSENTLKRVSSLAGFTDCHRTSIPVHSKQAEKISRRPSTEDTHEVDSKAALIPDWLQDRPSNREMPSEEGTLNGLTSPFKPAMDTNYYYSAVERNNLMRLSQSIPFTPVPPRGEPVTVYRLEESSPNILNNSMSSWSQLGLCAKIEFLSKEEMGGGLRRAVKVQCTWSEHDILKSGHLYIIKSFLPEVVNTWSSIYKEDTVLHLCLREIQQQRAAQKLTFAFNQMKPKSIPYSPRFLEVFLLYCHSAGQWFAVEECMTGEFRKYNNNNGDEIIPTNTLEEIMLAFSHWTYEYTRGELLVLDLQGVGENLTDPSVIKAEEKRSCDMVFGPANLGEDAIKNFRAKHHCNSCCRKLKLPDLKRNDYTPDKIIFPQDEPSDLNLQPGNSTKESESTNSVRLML

SMILES: N=C(N)c1ccc2cc(OC(=O)c3ccc(N=C(N)N)cc3)ccc2c1 [NM, 6-amidino-2-naphthyl-4-guanidinobenzobate dimethanesulfonate]
- effect on blocking potency of extracellular divalent cations ([1]; 500 μM NM): substantially reduced the blocking potency
- increase of inhibitory potency in divalent-free solution versus 0.1 mM divalents ([1]; +100 mV): about 5 fold
- Hill coefficient ([1]; +100 mV, 0.1 mM Ca2+ and 0.1 mM Mg2+): 1.4
- pIC50 ([1]; +100 mV, 0.1 mM Ca2+ and 0.1 mM Mg2+, read-out: IC50, inhibition of outward TRPM7 current): 3.21
- Hill coefficient ([1]; +100 mV, divalent free solution): 1.2
- pIC50 ([1]; +100 mV, divalent free solution, read-out: IC50, inhibition of TRPM7 current): 3.92
- increase of inhibitory potency in divalent-free solution versus 0.1 mM divalents ([1]; -100 mV): 30 fold
- Hill coefficient ([1]; -100 mV, 0.1 mM Ca2+ and 0.1 mM Mg2+): 1.3
- pIC50 ([1]; -100 mV, 0.1 mM Ca2+ and 0.1 mM Mg2+, read-out: IC50, inhibition of inward TRPM7 current): 3.29
- Hill coefficient ([1]; -100 mV, divalent free solution): 1.3
- pIC50 ([1]; -100 mV, divalent free solution, read-out: IC50, inhibition of TRPM7 current): 4.82
- potentiation of TRPM7 currents ([1]; TRPM7-transfected HEK293T cells, ramp-clamp, inward currents at -100 mV): potentiates
- inhibition of TRPM7 currents ([1]; in the presence of 1 mM Ca2+ and Mg2+): failed to inhibit
- firing frequency of action potentials [2]: 6.8 ± 2.9 Hz
- direct activation of TRPM7 current at physiological divalent cations ([3]; 25 μM, 2 mM Ca2+ and 1 mM Mg2+): little effects
- amplitude of NM-induced current ([3]; 0.1 mM Ca2+ (with 0.1 Mg2+)): 1018 ± 120 pA
- potentiation of evoked TRPM7 current, pre-exposed ([3]; 200 μM applied before lowering divalent cations, current evoked by 0.1 mM Ca2+ and 0.1 mM Mg2+): about 3.6 ± 0.4 fold
- offset time constant of inhibition [3, 7]: 1.07 ± 0.20 s
- onset time constant of inhibition [3, 7]: 0.29 ± 0.04 s
- direct activation of TRPM7 current at physiological divalent cations ([3]; 200 μM, 2 mM Ca2+ and 1 mM Mg2+): induced small inward currents
- current amplitude upon NM washout ([3]; 200 μM, 2 mM Ca2+ and 1 mM Mg2+, brief washout): 379 ± 86 pA
- amplitude of NM-induced current ([3]; 200 μM, 2 mM Ca2+ and 1 mM Mg2+, during application): 243 ± 66 pA
- reversal potential of NM-induced current ([3]; 200 μM, 2 mM Ca2+ and 1 mM Mg2+, voltage ramps): 0 mV
- block of TRPM7 current, co-applied ([3]; 200 μM, current evoked by 0.1 mM Ca2+ and 0.1 mM Mg2+): completely blocks
- block of TRPM7 current, co-applied ([3]; 200 μM, current evoked by zero divalent cations): reversibly blocked
- amplitude of NM-induced current ([3]; 2 mM Ca2+ (with 1 mM Mg2+)): 291 ± 52 pA
- amplitude of NM-induced current ([3]; 10 mM Ca2+ (with 1 mM Mg2+)): 147 ± 20 pA
- Hill coefficient ([3]; current evoked by 0.1 mM Ca2+ and 0.1 mM Mg2+): 1.4
- pIC50 ([3]; current evoked by 0.1 mM Ca2+ and 0.1 mM Mg2+, -60 mV, acutely applied, read-out: IC50, block of TRPM7 current): 4.57
- NM-induced change of intracellular concentration of Ca2+ ([4]; 200 μM, 2 mM Ca2+, no Mg2+, MK801, CNQX, nimodipine present): induced an increase
- net increase of 340/380 ratio on lowering extracellular Ca2+ ([4]; NM 50 μM, Ca2+ from 2.0 mM to 0.5 mM, no added Mg2+, without NM 2.64 ± 0.48): 0.61 ± 0.32
- net increase of 340/380 ratio induced by KCl ([4]; NM 50 μM, KCl 50 mM, 1.67 in the absence of NM): 1.84
- net increase of 340/380 ratio on lowering extracellular Ca2+ [5]: 0.20 ± 0.08
- inhibition by NM of currents, relative to WT [6]: strongly depressed

Source: article PMC3022637, “The modulation of TRPM7 currents by nafamostat mesilate depends directly upon extracellular concentrations of divalent cations” (Molecular Brain, 2010)
